Reference: publication PMC3293351, “Pharmacokinetics and Excretion Studies on CDRI-85/92, an Antiulcer Proton Pump Inhibitor” (Scientia Pharmaceutica, 2011)
“And” between values parts separate entries of the source, which are not always exact repeats. Identical values can stand only once. Like-named read-outs stand apart in the source and are kept apart here.

What was measured:
[1] = Pharmacokinetics in serum after 20 mg/kg oral and intravenous doses; assay type: in vivo, Sprague Dawley rats
Method: As the first step of experiment, an aqueous solution formulation of the compound was administered intravenously to conscious rats via the caudal vein at a dose of 20 mg/kg in a volume of approximately 1.0 ml/kg/rat. Before the experiment, the tail was cleaned with luke warm water and the caudal vein was dilated using xylene. Blood (approx. 1.2 ml) was collected by cardiac puncture under light ether anesthesia at 0.08, 0.25, 0.5, 1, 2, 3, 4, 5, 6, 8, 12, 24 and 48 h post dose. In the second study, conscious rats, fasted overnight, were fed orally at a dose of 20 mg/kg in a volume of 2.0 ml/kg/rat. After drug delivery, blood was collected at the same time points used in the intravenous study. Three rats were utilized for each time point and not more than three or four (later in case of 48 hr) blood samples from each rat, two of which were by intracardiac during the absorption-distribution phase (till 5 hr) and one from the venecava in the terminal phase (6 hr onwards), was withdrawn. Together in two sets of studies, there were 24 rats. (Pl refer to Sampling schedule: Table 1). The total volume of the blood withdrawn within 24 h from cardiac puncture was less than 10% of the total blood volume. Blood was allowed to clot in sealed glass tubes and centrifuged at 2000 rpm. The serum was separated and stored at −60°C until analyses.
Serum concentrations of the compound were determined by HPLC method as described by Srivastava & Gupta (2002) with minor modification. Briefly, to 0.5 ml serum (blank, spiked or test) in 10 ml test tube 1.5 ml of acetonitrile was added and vortex-mixed for 15 sec. The tubes were kept in fridge for 30 min for complete protein precipitation, vortex-mixed for 1 min and centrifuged at 1000 × g for 10 min at 4°C. Supernatant (1.5 ml) was transferred to a 10 ml conical tube without disturbing the lower precipitate pellet and evaporated to dryness in Savant speed vac concentrator. The residue was reconstituted in 0.1 ml of mobile phase, centrifuged at 1000 × g for 10 min and the resulting solution was injected onto the HPLC system.
After oral dose, serum peak concentration (Cmax) and the time to reach peak concentration (Tmax) were derived directly from the original data. The serum concentration-time data from intravenous and oral dosed rats were fitted to WinNonlin programme (version 1.5) to calculate various pharmacokinetic parameters (like AUC, Cl and Vd). The bioavailability for oral dose was calculated using the following equation:
%Bioavailability=AUCoral×Doseiv/AUCiv×Doseoral×100

[2] = Urinary, fecal and biliary excretion after 20 mg/kg oral and intravenous dose; assay type: in vivo, Sprague Dawley rats; conditions: for k el: Sprague Dawley, rat; for Excreted in urine, % of the dose: intravenously treated rats, bile duct cannulated as well as noncannulated
Method: Urinary, fecal and biliary excretion of CDRI-85/92 was studied in rats (n=3 per group) after a single 20 mg/kg oral and intravenous dose. Following treatment with CDRI-85/92, urine and feces samples were collected during 24 h with 12 h intervals. Urine was measured and kept in parafilm sealed tubes at −60°C till analyses. Feces samples were dried at 37°C, weighed, ground to fine powder using mortar-pestle and stored in desiccator until analyses. Untreated rats were housed in metabolic cages with food and water ad libitum and their feces and urine collected to serve as blank samples for method development and validation.
For biliary excretion study, bile duct of the rats was surgically cannulated under light ether anesthesia. Rats were dosed with the solution formulation of CDRI-85/92 at 20 mg/kg orally or intravenously and placed in Bollman cages. Bile samples were collected in glass tubes at 0–12 and 12–24 h post dose. The volume of the samples were recorded and stored at −60°C until analyses.
The HPLC method described above was validated for estimation of CDRI-85/92 in urine and bile by assaying the spiked control samples in these biomatrics at three concentration levels (20, 50 and 100 ng/ml of the drug). To have a robust method, inter- and intra-day validation was also conducted (Table 2).
For the preparation of the spiked control feces samples, weighed (25 mg) quantities of drug-free powdered feces were transferred to different glass tubes, fortified with appropriated volume of working dilutions of CDRI-85/92 prepared in methanol, mixed by gentle tapping and allowed to stand at room temperature for drying. The blank, spiked or test samples were moistened with 0.2 ml of KH2PO4 buffer (20 mM, pH 3.0) followed by addition of 1.0 ml of acetonitrile for protein precipitation. The tubes were sealed with parafilm and allowed to stand at room temperature with frequent vortexing. Supernatant were processed as described above for serum samples. For each analytical run, a calibration curve was constructed using peak response against the concentration in calibration standards prepared in same biomatrix.
The amount, cumulative amount and % of the administered dose excreted via urine, bile and feces were calculated.

[3] = Partition coefficient (log P), 1-octanol/phosphate buffer; assay type: physicochemical; conditions: 1-octanol/20 mM phosphate buffer; octanol partition, 20 mM phosphate buffer pH 7.4, 25°C
Method: Determination of log P was carried out according to the method of Said et al. (1996). 1-Octanol and 20 mM phosphate buffer (pH, 7.4) were mutually saturated for 6 h on magnetic stirrer and separated. A solution of the compound (1 mg/ml) was prepared in […]. Buffer (2 ml) and octanol containing CDRI-85/92 were placed in seven glass tubes and screw capped. These tubes were tumble-mixed for 2 h at 25°C at about 100 inversions/min. The organic and aqueous phases were separated by centrifugation at 2500 rev/min for 20 min. The concentration of the compound in aqueous and organic phase was determined by HPLC after a suitable dilution in mobile phase. The log P was calculated from the following equation:
Log P=logCoctanol/Cbuffer

[4] = log P from potentiometric titration; assay type: physicochemical; conditions: aqueous solution titrated with 0.1 M NaOH
Method: where Coctanol and Cbuffer are the concentrations of the compound in octanol and buffer, respectively. Further, log P values {[…]} were also calculated after conducting potentiometric titration. It was carried out manually using a pH electrode and a variable volume pipette. A solution of the compound (1 mg/ml) was prepared in water and it was titrated with a 0.1 M NaOH solution, pH was measured simultaneously. The equivalence point (pKa- partition coefficient) was estimated from the inflection point in the titration curve from the plot between pH and volume of mL of NaOH solution.

[5] = Aqueous solubility; assay type: physicochemical
[6] = method not specified; cited from earlier work
[7] = cited from earlier work
[8] = set-up: method as in PMID 12711165; conditions: alike at acidic and basic pHs; cited from earlier work
[9] = test system: gastric proton pump; conditions: cited from earlier work
[10] = test system: proton pumps of the kidney and bone; set-up: method as in PMID 17045703; conditions: cited from earlier work
[11] = test system: free acidity; conditions: compared with Omeprazole; cited from earlier work
[12] = set-up: method as in PMID 17045703; conditions: cited from earlier work
[13] = test system: glutathione-S-transferases; set-up: method as in PMID 15283303; conditions: formation of trans-isoform; cited from earlier work
[14] = set-up: method as in PMID 12563304; conditions: in rats; cited from earlier work
[15] = Sprague Dawley, serum, rat, 20 mg/kg IV
[16] = Sprague Dawley, rat serum, 20 mg/kg oral
[17] = IV 20 mg/kg, bile duct cannulated rats
[18] = IV 20 mg/kg, non-cannulated rats
[19] = IV 20 mg/kg, non-cannulated rats, up to 24 h, 20 mg/kg
[20] = oral 20 mg/kg, bile duct cannulated rats
[21] = oral 20 mg/kg, bile duct cannulated rats, up to 24 h, 20 mg/kg
[22] = oral 20 mg/kg, non-cannulated rats
[23] = oral 20 mg/kg, non-cannulated rats, up to 24 h, 20 mg/kg

O=C1NC(C(=O)O)/C(=C\Cc2ccccc2)O1 (stereo not drawn) [CDRI-85/92, (5E)-2-oxo-5-(2-phenylethylidene)-1,3-oxazolidine-4-carboxylic acid]
Cmax ([1]; Sprague Dawley, rat, serum, iv, 20 mg/kg, rat serum, 20 mg/kg IV, read-out: Cmax): 4.91 µg/mL
half-life ([1]; Sprague Dawley, rat, serum, iv, 20 mg/kg, rat serum, 20 mg/kg IV, read-out: Elimination t1/2 (converted)): 2 h
Cmax ([1]; Sprague Dawley, rat, serum, po, 20 mg/kg, rat serum, 20 mg/kg oral, read-out: Cmax): 0.469 ± 0.0455 µg/mL
MRT [1, 15]: 1.1 h
Vd [1, 15]: 3.7 L/kg
clearance [1, 15]: 18.3 mL/min
MRT ([1]; Sprague Dawley, serum, rat, 20 mg/kg oral): 3.9 h
bioavailability ([1]; Sprague Dawley, serum, rat, 20 mg/kg oral vs IV, based on AUC): 70.5%
AUC(0-inf) ([1]; Sprague Dawley, rat serum, 20 mg/kg IV): 1.25 µg·h/mL
AUC(0-inf) [1, 16]: 0.882 µg·h/mL
Tmax [1, 16]: 1 h
Elimination t1/2 ([1]; rat serum, 20 mg/kg IV, 20 mg/kg): 2.1 h
Cmax ([1]; rat serum, 20 mg/kg oral, 20 mg/kg): 0.4692 µg/mL
Time up to which detected in serum ([1]; rat, 20 mg/kg IV): up to 12 h
MAT (mean absorption time) ([1]; rat, 20 mg/kg oral, MRToral - MRTIV): 2.8 h
Earliest time detectable in serum ([1]; rat, post oral administration 20 mg/kg): 5 min
% of dose recovered, urine 0–12 h [2, 17]: 16.8%
fe (fraction excreted), urine [2, 17]: 0.90
% of dose recovered, urine total ([2]; IV 20 mg/kg, bile duct cannulated rats, up to 24 h, 20 mg/kg): 16.8 ± 2.7% and 16.8%
% of dose recovered, feces 0–12 h [2, 18]: 0.05%
% of dose recovered, feces 12–24 h [2, 18]: 0.02%
% of dose recovered, urine 0–12 h [2, 18]: 15.7%
fe (fraction excreted), feces [2, 18]: 0.0008
fe (fraction excreted), urine [2, 18]: 0.9
% of dose recovered, feces total [2, 19]: 0.08 ± 0.08% and 0.08%
% of dose recovered, urine total [2, 19]: 15.7 ± 3.3% and 15.7%
k el ([2]; bile, po, 20 mg/kg, oral 20 mg/kg, bile duct cannulated rats, read-out: Ke (excretion rate constant), bile (converted)): 2.78e-05 s⁻¹
k el ([2]; bile, po, 20 mg/kg, oral 20 mg/kg, bile duct cannulated rats, read-out: Kel (elimination rate constant), bile (converted)): 1.33e-05 s⁻¹
k el ([2]; feces, iv, 20 mg/kg, IV 20 mg/kg, non-cannulated rats, read-out: Ke (excretion rate constant), feces (converted)): 4.17e-05 s⁻¹
k el ([2]; feces, iv, 20 mg/kg, IV 20 mg/kg, non-cannulated rats, read-out: Kel (elimination rate constant), feces (converted)): 8.33e-06 s⁻¹
k el ([2]; feces, po, 20 mg/kg, oral 20 mg/kg, non-cannulated rats, read-out: Ke (excretion rate constant), feces (converted)): 1.94e-05 s⁻¹
k el ([2]; feces, po, 20 mg/kg, oral 20 mg/kg, non-cannulated rats, read-out: Kel (elimination rate constant), feces (converted)): 1.67e-05 s⁻¹
k el ([2]; urine, iv, 20 mg/kg, IV 20 mg/kg, bile duct cannulated rats, read-out: Ke (excretion rate constant), urine (converted)): 1.11e-05 s⁻¹
k el ([2]; urine, iv, 20 mg/kg, IV 20 mg/kg, bile duct cannulated rats, read-out: Kel (elimination rate constant), urine (converted)): 1.39e-05 s⁻¹
k el ([2]; urine, iv, 20 mg/kg, IV 20 mg/kg, non-cannulated rats, read-out: Ke (excretion rate constant), urine (converted)): 2.5e-05 s⁻¹
k el ([2]; urine, iv, 20 mg/kg, IV 20 mg/kg, non-cannulated rats, read-out: Kel (elimination rate constant), urine (converted)): 2.78e-05 s⁻¹
k el ([2]; urine, po, 20 mg/kg, oral 20 mg/kg, bile duct cannulated rats, read-out: Ke (excretion rate constant), urine (converted)): 1.67e-05 s⁻¹
k el ([2]; urine, po, 20 mg/kg, oral 20 mg/kg, bile duct cannulated rats, read-out: Kel (elimination rate constant), urine (converted)): 1.94e-05 s⁻¹
k el ([2]; urine, po, 20 mg/kg, oral 20 mg/kg, non-cannulated rats, read-out: Ke (excretion rate constant), urine (converted)): 1.11e-05 s⁻¹
k el ([2]; urine, po, 20 mg/kg, oral 20 mg/kg, non-cannulated rats, read-out: Kel (elimination rate constant), urine (converted)): 1.94e-05 s⁻¹
Excreted in urine, % of the dose [2]: 15%
Excreted in urine, % of the dose ([2]; listed as CDRI 85/92): ~ 15%
% of dose recovered, bile 0–12 h [2, 20]: 0.3%
% of dose recovered, bile 12–24 h [2, 20]: 0.08%
% of dose recovered, urine 0–12 h [2, 20]: 1.5%
% of dose recovered, urine 12–24 h [2, 20]: 0.2%
fe (fraction excreted), bile [2, 20]: 0.0037
fe (fraction excreted), urine [2, 20]: 0.83
% of dose recovered, bile total [2, 21]: 0.37 ± 0.12% and 0.37%
% of dose recovered, urine total [2, 21]: 1.7 ± 0.8% and 1.7%
% of dose recovered, feces 0–12 h [2, 22]: 1.0%
% of dose recovered, feces 12–24 h [2, 22]: 0.2%
% of dose recovered, urine 0–12 h [2, 22]: 3.7%
% of dose recovered, urine 12–24 h [2, 22]: 0.5%
fe (fraction excreted), feces [2, 22]: 0.012
% of dose recovered, feces total [2, 23]: 1.2 ± 0.6% and 1.2%
% of dose recovered, urine total [2, 23]: 4.2 ± 1.1% and 4.2%
Levels of the compound in bile and feces ([2]; rats, 20 mg/kg): insignificant levels
logP [3]: 0.53 ± 0.11
logP [4]: 0.55 ± 0.18
Solubility in formulation ([5]; 10 and 20 mg/ml in triple distilled water): completely soluble
Solubility in water ([5]; water): freely soluble in water
log P [6]: 0.5
aqueous solubility [7]: > 0.5 mg/mL
Ka (absorption rate constant) [8]: 0.12 h⁻¹
Inhibition of the gastric proton pump [9]: selective and competitive inhibition
Inhibition of proton pumps of the kidney and bone [10]: not inhibiting
% inhibition in the free acidity [11]: fairly compares with that of Omeprazole
cytoprotective activity [12]: good cytoprotective activity
Metabolism by glutathione-S-transferases [13]: very slow metabolism

COc1ccc2[nH]c([S+]([O-])Cc3ncc(C)c(OC)c3C)nc2c1 (stereo not drawn) [Omeprazole, reference compound]
half-life [14]: less than 5 min
Type of proton pump inhibition [9]: irreversible proton pump inhibitor
